Results as given in patent US10751319B2, “Collection device and methods for use” (CRITITECH, INC., priority 2015, dated 2020).
Values joined by “and” are separate entries in the source; they are usually repeats but may differ in a detail not shown here. Identical values can stand only once.

Key:
Assay type in all cases: physicochemical
[1] = Docetaxel dissolution study, USP Apparatus II (Paddle); details: methanol/water 15/85, 37° C., pH 7, 75 rpm
Procedure: At 5, 15, 30, 60, 120 and 225 minutes, a 5 mL aliquot was removed, filtered through a 0.22 μm filter, and analyzed on a UV/VIS spectrophotometer at 232 nm. Absorbance values of the samples were compared to those of standard solutions prepared in dissolution media to determine the amount of material dissolved.

[2] = Bulk density; details: room temperature
Procedure: The mass of the drug was measured to a nearest 0.1 mg, the volume was determined to the nearest 0.1 mL and the density calculated.

[3] = BET analysis (surface area); details: listed as raw paclitaxel
Procedure: A known mass between 200 and 300 mg of the analyte was added to a 30 mL sample tube. The loaded tube was then mounted to a Porous Materials Inc. SORPTOMETER®, model BET-202A. The automated test was then carried out using the BETWIN® software package and the surface area of each sample was subsequently calculated.

Dissolution ([1]; 0 minutes) [%] | Dissolution ([1]; 5 minutes) [%] | Dissolution ([1]; 15 minutes) [%] | Dissolution ([1]; 30 minutes) | Dissolution ([1]; 60 minutes) [%] | Dissolution ([1]; 120 minutes) [%] | Dissolution ([1]; 225 minutes) [%] | Bulk Density [2] [g/mL] | Surface area [3] [m^2/g] | Structure (SMILES)
0.0 | 3.2 | 6.9 | 11% and 11.2% | 16.4 | 22.4 | 26.8 | 0.24 | – | CC(=O)O[C@@]12CO[C@@H]1C[C@H](O)[C@@]1(C)C(=O)[C@H](O)C3=C(C)[C@@H](OC(=O)[C@H](O)[C@@H](NC(=O)OC(C)(C)C)c4ccccc4)C[C@@](O)([C@@H](OC(=O)c4ccccc4)[C@H]21)C3(C)C [Docetaxel Raw Material, docetaxel]
– | – | – | – | – | – | – | 0.26 | 7.25 | CC(=O)O[C@H]1C(=O)[C@@]2(C)[C@H]([C@H](OC(=O)c3ccccc3)[C@]3(O)C[C@H](OC(=O)[C@H](O)[C@@H](NC(=O)c4ccccc4)c4ccccc4)C(C)=C1C3(C)C)[C@]1(OC(C)=O)CO[C@@H]1C[C@@H]2O [Paclitaxel Raw Material, paclitaxel]
